{"source": "paper doi:10.1101/2023.03.24.534094v2", "about": "(biorxiv, 2023)", "assay_in_all_cases": "biochemical", "key": {"TLK1": {"biological_target": "T1, TLK1 (Homo sapiens, UniProt Q9UKI8)", "T1 sequence (Q9UKI8 1-766)": "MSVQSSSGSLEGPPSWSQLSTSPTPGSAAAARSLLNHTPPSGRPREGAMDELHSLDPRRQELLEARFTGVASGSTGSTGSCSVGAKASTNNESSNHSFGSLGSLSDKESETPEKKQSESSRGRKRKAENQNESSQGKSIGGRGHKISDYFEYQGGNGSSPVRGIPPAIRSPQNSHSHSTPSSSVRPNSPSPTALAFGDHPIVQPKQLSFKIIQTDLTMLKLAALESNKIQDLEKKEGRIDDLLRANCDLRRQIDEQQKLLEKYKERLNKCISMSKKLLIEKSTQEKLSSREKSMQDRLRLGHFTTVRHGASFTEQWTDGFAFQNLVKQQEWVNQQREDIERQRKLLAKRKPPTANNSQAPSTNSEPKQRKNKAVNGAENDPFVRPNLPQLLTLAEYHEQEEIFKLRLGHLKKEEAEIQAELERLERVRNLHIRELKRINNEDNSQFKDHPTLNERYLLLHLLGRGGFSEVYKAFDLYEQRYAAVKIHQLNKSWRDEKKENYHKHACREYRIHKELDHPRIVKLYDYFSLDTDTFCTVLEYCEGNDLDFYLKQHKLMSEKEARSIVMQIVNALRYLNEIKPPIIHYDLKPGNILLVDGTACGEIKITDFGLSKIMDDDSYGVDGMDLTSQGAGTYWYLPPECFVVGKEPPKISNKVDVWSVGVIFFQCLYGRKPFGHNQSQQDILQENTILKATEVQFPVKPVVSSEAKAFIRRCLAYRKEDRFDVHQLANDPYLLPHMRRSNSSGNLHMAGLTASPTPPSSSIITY"}, "BRAF": {"biological_target": "BRAF (Homo sapiens, UniProt P15056)", "sequence (P15056 whole entry)": "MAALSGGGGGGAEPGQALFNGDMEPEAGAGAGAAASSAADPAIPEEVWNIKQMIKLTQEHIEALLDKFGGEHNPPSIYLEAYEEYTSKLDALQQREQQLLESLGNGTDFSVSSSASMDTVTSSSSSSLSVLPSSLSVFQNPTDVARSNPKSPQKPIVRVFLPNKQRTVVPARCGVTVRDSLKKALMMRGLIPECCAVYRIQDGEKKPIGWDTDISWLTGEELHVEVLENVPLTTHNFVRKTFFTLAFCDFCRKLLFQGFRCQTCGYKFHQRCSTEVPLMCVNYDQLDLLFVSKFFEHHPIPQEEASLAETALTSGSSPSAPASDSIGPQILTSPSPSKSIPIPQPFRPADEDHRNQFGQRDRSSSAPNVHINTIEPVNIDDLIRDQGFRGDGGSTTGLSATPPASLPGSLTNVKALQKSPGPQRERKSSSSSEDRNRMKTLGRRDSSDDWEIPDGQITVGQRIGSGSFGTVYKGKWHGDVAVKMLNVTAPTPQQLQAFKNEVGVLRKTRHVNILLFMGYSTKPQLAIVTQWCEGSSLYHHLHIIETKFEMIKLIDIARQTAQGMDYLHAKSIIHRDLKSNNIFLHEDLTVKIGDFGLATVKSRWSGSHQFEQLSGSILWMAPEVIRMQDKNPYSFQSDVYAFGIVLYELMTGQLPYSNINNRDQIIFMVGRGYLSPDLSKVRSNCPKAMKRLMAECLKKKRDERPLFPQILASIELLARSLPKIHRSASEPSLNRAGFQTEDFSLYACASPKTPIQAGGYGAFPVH"}, "BMX": {"biological_target": "T2, BMX (Homo sapiens, UniProt P51813)", "T2 sequence (P51813 1-675)": "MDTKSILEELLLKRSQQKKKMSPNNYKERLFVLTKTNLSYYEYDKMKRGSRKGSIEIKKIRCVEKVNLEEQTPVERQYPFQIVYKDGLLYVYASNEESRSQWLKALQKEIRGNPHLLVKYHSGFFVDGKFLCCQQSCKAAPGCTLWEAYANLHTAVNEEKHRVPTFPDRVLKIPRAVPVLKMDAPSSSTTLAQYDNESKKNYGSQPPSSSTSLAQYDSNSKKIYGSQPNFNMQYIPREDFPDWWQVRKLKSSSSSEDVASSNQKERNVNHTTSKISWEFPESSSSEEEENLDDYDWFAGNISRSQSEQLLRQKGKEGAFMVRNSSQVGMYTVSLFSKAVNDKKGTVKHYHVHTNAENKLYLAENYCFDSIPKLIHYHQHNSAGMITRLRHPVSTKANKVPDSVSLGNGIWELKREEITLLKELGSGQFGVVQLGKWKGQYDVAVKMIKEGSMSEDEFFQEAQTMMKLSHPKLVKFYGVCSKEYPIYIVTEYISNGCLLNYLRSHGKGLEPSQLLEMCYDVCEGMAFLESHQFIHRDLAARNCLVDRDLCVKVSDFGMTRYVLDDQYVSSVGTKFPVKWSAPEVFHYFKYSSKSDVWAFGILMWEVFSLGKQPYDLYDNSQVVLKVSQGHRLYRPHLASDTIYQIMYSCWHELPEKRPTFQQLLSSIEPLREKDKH"}, "BMPR2": {"biological_target": "T3, BMPR2 (Homo sapiens, UniProt Q13873)", "T3 sequence (Q13873 1-1038)": "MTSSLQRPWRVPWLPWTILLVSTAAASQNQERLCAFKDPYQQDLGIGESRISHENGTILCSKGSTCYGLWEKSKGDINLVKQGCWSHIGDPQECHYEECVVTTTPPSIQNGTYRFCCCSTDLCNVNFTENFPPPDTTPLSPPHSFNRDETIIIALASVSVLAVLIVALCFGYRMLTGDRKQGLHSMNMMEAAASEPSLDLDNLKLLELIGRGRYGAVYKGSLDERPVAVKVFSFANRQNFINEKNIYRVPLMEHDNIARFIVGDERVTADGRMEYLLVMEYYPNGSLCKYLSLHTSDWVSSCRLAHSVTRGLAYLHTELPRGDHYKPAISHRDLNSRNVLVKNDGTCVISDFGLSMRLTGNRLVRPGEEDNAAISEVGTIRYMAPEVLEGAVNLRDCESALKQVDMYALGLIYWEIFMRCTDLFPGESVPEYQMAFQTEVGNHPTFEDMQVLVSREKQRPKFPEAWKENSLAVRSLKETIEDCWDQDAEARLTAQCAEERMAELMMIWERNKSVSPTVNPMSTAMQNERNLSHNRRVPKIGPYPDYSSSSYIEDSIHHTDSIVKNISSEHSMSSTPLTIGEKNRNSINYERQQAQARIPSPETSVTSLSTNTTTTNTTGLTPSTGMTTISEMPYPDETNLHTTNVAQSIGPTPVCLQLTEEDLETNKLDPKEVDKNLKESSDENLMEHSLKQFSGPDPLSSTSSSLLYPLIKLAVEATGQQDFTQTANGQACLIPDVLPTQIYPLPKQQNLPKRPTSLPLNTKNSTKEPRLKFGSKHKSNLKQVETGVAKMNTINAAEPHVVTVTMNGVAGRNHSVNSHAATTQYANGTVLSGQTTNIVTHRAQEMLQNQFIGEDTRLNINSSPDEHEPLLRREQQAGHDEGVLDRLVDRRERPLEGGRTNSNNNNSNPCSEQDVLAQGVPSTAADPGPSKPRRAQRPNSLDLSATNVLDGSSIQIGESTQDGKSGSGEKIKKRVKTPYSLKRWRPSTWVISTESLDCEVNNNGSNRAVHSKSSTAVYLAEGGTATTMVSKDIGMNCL"}, "CHK2": {"biological_target": "CHK2 (Homo sapiens, UniProt O96017)", "sequence (O96017 whole entry)": "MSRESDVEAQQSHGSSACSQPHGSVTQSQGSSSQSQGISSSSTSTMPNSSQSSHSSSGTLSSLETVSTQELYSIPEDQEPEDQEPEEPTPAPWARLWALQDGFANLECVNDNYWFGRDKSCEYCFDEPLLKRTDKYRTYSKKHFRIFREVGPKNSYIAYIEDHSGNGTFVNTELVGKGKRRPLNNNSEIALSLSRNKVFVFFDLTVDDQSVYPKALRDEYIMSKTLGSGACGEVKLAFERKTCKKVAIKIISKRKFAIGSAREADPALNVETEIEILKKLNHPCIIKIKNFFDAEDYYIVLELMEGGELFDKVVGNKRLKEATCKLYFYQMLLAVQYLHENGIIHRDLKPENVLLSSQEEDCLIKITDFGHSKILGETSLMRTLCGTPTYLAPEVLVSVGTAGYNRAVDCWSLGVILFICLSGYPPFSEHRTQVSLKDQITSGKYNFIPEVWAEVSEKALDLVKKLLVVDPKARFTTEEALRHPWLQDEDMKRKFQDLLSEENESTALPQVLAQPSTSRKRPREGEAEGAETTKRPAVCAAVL"}, "FGFR2": {"biological_target": "FGFR2 (Homo sapiens, UniProt P21802)", "sequence (P21802 whole entry)": "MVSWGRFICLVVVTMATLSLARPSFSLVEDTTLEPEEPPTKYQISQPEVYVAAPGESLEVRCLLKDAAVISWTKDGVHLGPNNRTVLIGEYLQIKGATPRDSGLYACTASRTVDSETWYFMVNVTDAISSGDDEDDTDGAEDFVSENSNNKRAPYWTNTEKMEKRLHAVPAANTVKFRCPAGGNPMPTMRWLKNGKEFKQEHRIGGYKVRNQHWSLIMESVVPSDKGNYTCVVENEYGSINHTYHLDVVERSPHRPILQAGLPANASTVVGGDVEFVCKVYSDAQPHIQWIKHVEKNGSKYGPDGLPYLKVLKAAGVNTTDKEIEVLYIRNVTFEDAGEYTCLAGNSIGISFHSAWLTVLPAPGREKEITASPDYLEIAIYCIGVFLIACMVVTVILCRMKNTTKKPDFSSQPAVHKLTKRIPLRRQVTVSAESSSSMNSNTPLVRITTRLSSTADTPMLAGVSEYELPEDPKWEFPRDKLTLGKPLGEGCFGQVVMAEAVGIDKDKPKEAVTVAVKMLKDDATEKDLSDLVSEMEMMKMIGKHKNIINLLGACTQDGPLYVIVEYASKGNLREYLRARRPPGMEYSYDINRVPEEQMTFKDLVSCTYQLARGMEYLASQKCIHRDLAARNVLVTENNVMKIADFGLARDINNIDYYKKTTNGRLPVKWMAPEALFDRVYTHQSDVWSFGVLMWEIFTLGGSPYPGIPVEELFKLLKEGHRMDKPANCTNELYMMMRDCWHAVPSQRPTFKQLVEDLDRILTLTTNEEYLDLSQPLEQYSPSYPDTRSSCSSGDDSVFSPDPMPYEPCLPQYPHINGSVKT"}}, "note": "Read-outs that look alike come from different tables or passages of the source.", "data": [{"smiles": "CNc1ncc2cc(-c3ccc(-c4cccc(C)n4)cc3Cl)c(=O)n(CC3OCC(N)CO3)c2n1", "note": "(stereo not drawn) [compound 2, G-5555]", "values": [{"measurement": "dTm G-5555 (2)", "setting": "TLK1; 10 µM, binder", "value": -0.3, "unit": "°C"}, {"measurement": "dTm G-5555 (2)", "setting": "BRAF; 10 µM, binder", "value": 3.9, "unit": "°C"}, {"measurement": "dTm G-5555 (2)", "setting": "BMX; 10 µM, binder", "value": 1.3, "unit": "°C"}, {"measurement": "dTm G-5555 (2)", "setting": "BMPR2; 10 µM, binder", "value": -0.4, "unit": "°C"}, {"measurement": "dTm G-5555 (2)", "setting": "CHK2; 10 µM, binder", "value": 0.9, "unit": "°C"}, {"measurement": "dTm G-5555 (2)", "setting": "FGFR2; 10 µM, binder", "value": 0.7, "unit": "°C"}]}, {"smiles": "CNc1ncc2cc(-c3cc(Br)ccc3Cl)c(=O)n(CCCCN)c2n1", "note": "[compound 6, 8-(4-Aminobutyl)-6-(5-bromo-2-chlorophenyl)-2-(methylamino)pyrido[2,3-d]pyrimidin-7(8H)-one]", "values": [{"measurement": "ΔTm at 10 µM", "setting": "TLK1; read-out: dTm 6", "value": 0, "unit": "°C"}, {"measurement": "ΔTm at 10 µM", "setting": "BRAF; read-out: dTm 6", "value": 10.8, "unit": "°C"}, {"measurement": "ΔTm at 10 µM", "setting": "BMX; read-out: dTm 6", "value": 3.8, "unit": "°C"}, {"measurement": "ΔTm at 10 µM", "setting": "BMPR2; read-out: dTm 6", "value": -0.3, "unit": "°C"}, {"measurement": "ΔTm at 10 µM", "setting": "CHK2; read-out: dTm 6", "value": 0.4, "unit": "°C"}, {"measurement": "ΔTm at 10 µM", "setting": "FGFR2; read-out: dTm 6", "value": 4.1, "unit": "°C"}]}, {"smiles": "CNc1ncc2cc(-c3cc(F)ccc3F)c(=O)n(CCCCN)c2n1", "note": "[compound 5, 8-(4-Aminobutyl)-6-(2,5-difluorophenyl)-2-(methylamino)pyrido[2,3-d]pyrimidin-7(8H)-one]", "values": [{"measurement": "ΔTm at 10 µM", "setting": "TLK1; read-out: dTm MR22 (5)", "value": -1.3, "unit": "°C"}, {"measurement": "ΔTm at 10 µM", "setting": "BRAF; read-out: dTm MR22 (5)", "value": 9.2, "unit": "°C"}, {"measurement": "ΔTm at 10 µM", "setting": "BMX; read-out: dTm MR22 (5)", "value": 1.9, "unit": "°C"}, {"measurement": "ΔTm at 10 µM", "setting": "BMPR2; read-out: dTm MR22 (5)", "value": 0.3, "unit": "°C"}, {"measurement": "ΔTm at 10 µM", "setting": "CHK2; read-out: dTm MR22 (5)", "value": 0.4, "unit": "°C"}, {"measurement": "ΔTm at 10 µM", "setting": "FGFR2; read-out: dTm MR22 (5)", "value": 3.7, "unit": "°C"}]}, {"smiles": "CNc1ncc2cc(-c3ccccc3Cl)c(=O)n(CCCCN)c2n1", "note": "[compound 4, 8-(4-Aminobutyl)-6-(2-chlorophenyl)-2-(methylamino)pyrido[2,3-d]pyrimidin-7(8H)-one]", "values": [{"measurement": "ΔTm at 10 µM", "setting": "TLK1; read-out: dTm MR21 (4)", "value": 0.5, "unit": "°C"}, {"measurement": "ΔTm at 10 µM", "setting": "BRAF; read-out: dTm MR21 (4)", "value": 12.2, "unit": "°C"}, {"measurement": "ΔTm at 10 µM", "setting": "BMX; read-out: dTm MR21 (4)", "value": 3.3, "unit": "°C"}, {"measurement": "ΔTm at 10 µM", "setting": "BMPR2; read-out: dTm MR21 (4)", "value": 1.6, "unit": "°C"}, {"measurement": "ΔTm at 10 µM", "setting": "CHK2; read-out: dTm MR21 (4)", "value": 0.9, "unit": "°C"}, {"measurement": "ΔTm at 10 µM", "setting": "FGFR2; read-out: dTm MR21 (4)", "value": 4.7, "unit": "°C"}]}, {"smiles": "CNc1ncc2cc(-c3cc(Br)ccc3Cl)c(=O)n(C[C@H]3OC[C@H](N)CO3)c2n1", "note": "[compound 7, 8-(((2r,5r)-5-Amino-1,3-dioxan-2-yl)methyl)-6-(5-bromo-2-chlorophenyl)-2-(methylamino)pyrido[2,3-d]pyrimidin-7(8H)-one]", "values": [{"measurement": "ΔTm at 10 µM", "setting": "TLK1; read-out: dTm 7", "value": 0.9, "unit": "°C"}, {"measurement": "ΔTm at 10 µM", "setting": "BRAF; read-out: dTm 7", "value": 8.3, "unit": "°C"}, {"measurement": "ΔTm at 10 µM", "setting": "BMX; read-out: dTm 7", "value": 3.2, "unit": "°C"}, {"measurement": "ΔTm at 10 µM", "setting": "BMPR2; read-out: dTm 7", "value": 0, "unit": "°C"}, {"measurement": "ΔTm at 10 µM", "setting": "CHK2; read-out: dTm 7", "value": 0.2, "unit": "°C"}, {"measurement": "ΔTm at 10 µM", "setting": "FGFR2; read-out: dTm 7", "value": 3.7, "unit": "°C"}]}]}
